From patent US4387100A, “Substituted phenoxy-aminopropanol derivatives” (Hoffmann-La Roche Inc., priority 1980, dated 1983)
Where two headings read alike, the source gives them in different places.

Key:
β1-adrenoceptors = molecular target: T1, β1-adrenoceptors (Rattus norvegicus, UniProt P18090); assay: 50% reduction in isoprenaline-induced tachycardia (β1-blocking activity) in rats, i.v.; format: in vivo; conditions: iv, read-out: ED50 (HR)
T1 construct: this activity is measured in rats by determining the dosage; from tissue; host or cells: living rat, i.v. dosing; read-out heart rate (isoprenaline-induced tachycardia)

β2-adrenoceptors = molecular target: T2, β2-adrenoceptors (Rattus norvegicus, UniProt P10608); assay: 50% reduction in isoprenaline-induced depressor responses (β2-blocking activity) in rats, i.v.; format: in vivo; conditions: iv, dosage for 50% reduction in isoprenaline-induced depressor responses
T2 construct: this activity is measured in rats by determining the dosage; from tissue; host or cells: living rat, i.v. dosing; read-out blood pressure (isoprenaline-induced depressor response)

[1] = rats, i.v., dosage for 50% reduction in isoprenaline-induced tachycardia

T1 sequence (P18090 whole entry): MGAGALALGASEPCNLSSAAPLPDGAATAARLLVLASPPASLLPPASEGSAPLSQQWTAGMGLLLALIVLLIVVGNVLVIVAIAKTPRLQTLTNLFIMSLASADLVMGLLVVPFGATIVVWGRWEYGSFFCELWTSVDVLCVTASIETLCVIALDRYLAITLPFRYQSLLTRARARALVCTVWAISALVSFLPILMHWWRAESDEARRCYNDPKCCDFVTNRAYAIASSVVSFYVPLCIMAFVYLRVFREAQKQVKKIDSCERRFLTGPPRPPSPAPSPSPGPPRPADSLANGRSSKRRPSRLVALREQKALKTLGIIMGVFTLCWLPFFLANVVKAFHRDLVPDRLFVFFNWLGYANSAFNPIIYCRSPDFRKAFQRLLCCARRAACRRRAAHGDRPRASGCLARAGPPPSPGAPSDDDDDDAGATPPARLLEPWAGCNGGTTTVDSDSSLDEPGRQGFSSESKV
T2 sequence (P10608 whole entry): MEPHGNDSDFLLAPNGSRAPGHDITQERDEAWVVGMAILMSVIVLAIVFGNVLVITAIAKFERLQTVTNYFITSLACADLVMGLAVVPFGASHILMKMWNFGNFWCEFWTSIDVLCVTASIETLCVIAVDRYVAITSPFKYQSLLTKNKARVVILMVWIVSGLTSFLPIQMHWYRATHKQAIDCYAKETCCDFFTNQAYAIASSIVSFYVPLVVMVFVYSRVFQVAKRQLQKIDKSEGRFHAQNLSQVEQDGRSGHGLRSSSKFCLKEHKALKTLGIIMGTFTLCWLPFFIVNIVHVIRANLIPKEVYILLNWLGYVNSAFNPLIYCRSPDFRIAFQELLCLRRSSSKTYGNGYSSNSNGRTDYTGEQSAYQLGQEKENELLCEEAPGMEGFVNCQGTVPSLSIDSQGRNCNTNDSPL

SMILES | ED50 (β1-adrenoceptors; [1]) [mg/kg] | ED50 (β2-adrenoceptors) [mg/kg] | ED50 (β1-adrenoceptors) [mg/kg]
CC(C)NCC(O)COc1ccc(OCn2cc(Cl)cn2)cc1 (stereo not drawn) [B] | 0.004 | 2.43 | 
CC(C)NCC(O)COc1ccc(OCn2nccn2)cc1 (stereo not drawn) [C] | 0.011 | > 2 | 
CC(C)NCC(O)COc1ccc(CC(N)=O)cc1 (stereo not drawn) [Atenolol, atenolol, reference compound] |  |  | 0.091
CC(C)NCC(O)COc1ccc(OCCn2cccn2)cc1 (stereo not drawn) [A] | 0.05 | 6.5 | 
CC(C)NCC(O)COc1ccc(OCCn2nccn2)cc1 (stereo not drawn) [D] | 0.014 | > 2 | 
